In ChEMBL document CHEMBL1201862, “PubChem BioAssay data set” (2004):
Activity calls are given as the source filed them.

Columns and labels:
cells [1] = experiment: cells
[2] = viability of uninfected HEp-2 cells – cell-based, HTS, cytotoxicity control for RSV inhibitor project, dose response (AID 2410); assay type: functional; details: human respiratory syncytial virus
Leucine aminopeptidase = target: T1, Leucine aminopeptidase (Plasmodium falciparum 3D7, UniProt Q8IL11); experiment: P. falciparum M17LAP inhibitors, primary screen, biochemical, fluorogenic H-Leu-NHMec substrate, 1536-well (AID 1619); assay type: functional
T1 sequence (Q8IL11 whole entry): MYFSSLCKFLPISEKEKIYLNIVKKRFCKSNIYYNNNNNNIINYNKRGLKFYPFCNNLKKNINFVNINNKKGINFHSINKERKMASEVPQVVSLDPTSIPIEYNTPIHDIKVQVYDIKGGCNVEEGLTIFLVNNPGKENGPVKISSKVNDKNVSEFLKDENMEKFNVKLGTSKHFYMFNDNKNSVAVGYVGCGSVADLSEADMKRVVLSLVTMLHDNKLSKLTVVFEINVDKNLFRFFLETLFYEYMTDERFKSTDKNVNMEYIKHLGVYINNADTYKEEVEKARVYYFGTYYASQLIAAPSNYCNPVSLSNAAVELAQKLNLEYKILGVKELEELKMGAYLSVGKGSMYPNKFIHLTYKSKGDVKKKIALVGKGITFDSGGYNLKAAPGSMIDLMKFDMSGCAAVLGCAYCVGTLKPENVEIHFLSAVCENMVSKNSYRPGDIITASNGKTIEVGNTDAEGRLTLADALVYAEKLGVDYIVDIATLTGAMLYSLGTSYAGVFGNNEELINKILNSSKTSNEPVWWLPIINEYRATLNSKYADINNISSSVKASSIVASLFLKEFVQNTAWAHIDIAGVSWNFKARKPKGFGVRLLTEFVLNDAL

Major prion protein = Major prion protein (Homo sapiens, UniProt P04156); assay type: functional, cell-based
cells [3] = experiment: cells; remark: listed apart in the source
[4] = HEK-293T cell viability reduction – luminescence, B-cell screen hits, cytotoxicity control for BCR NF-kB inhibitor project, dose response (AID 489021); assay type: functional, cell-based;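 further: HEK-293T cells carrying an NF-kB luciferase reporter; cells exposed to compound for about 14 hours before viability readout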
[5] = luciferase reporter signal suppression in cells – H4 neuroglioma cells, luminescence, dose response (AID 1990); assay type: functional, cell-based
[6] = Luminescence Cell-Based Dose Response HTS to Identify Inhibitors of 5'UTR Stem-Loop Driven Prion Protein mRNA Translation in H4 Neuroglioblastoma Cells. [Related pubchem assays: 1827 (Project Summary), 1813 (Primary HTS)]; assay type: functional
Melanocortin receptor 4 = Melanocortin receptor 4 (Homo sapiens, UniProt P32245); assay type: functional, cell-based;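 further: Cell-based assay with luminescence read-out, confirmatory dose-response testing for agonist activity of biased ligands at MC4R; human U2OS cells with tagged receptor and beta-arrestin; potency of agonists that increase receptor coupling to beta-arrestin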
[7] = alpha-synuclein stem-loop luciferase translation blockers – H4 neuroglioma cells, luminescence, confirmation (AID 1988); assay type: functional, cell-based
[8] = target: T2, Heat shock factor protein 1 (Mus musculus, UniProt P38532); experiment: decrease of HSF1-responsive luciferase luminescence – cell-based, NIH3T3, dose retest, confirmation (AID 2382); assay type: functional;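 further: NIH3T3 fibroblasts with HSF1-driven luciferase reporter stressed by proteasome inhibitor MG132; luminescence from HSF1-driven luciferase expression after 8 hours of MG132 stress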
T2 sequence (P38532 whole entry): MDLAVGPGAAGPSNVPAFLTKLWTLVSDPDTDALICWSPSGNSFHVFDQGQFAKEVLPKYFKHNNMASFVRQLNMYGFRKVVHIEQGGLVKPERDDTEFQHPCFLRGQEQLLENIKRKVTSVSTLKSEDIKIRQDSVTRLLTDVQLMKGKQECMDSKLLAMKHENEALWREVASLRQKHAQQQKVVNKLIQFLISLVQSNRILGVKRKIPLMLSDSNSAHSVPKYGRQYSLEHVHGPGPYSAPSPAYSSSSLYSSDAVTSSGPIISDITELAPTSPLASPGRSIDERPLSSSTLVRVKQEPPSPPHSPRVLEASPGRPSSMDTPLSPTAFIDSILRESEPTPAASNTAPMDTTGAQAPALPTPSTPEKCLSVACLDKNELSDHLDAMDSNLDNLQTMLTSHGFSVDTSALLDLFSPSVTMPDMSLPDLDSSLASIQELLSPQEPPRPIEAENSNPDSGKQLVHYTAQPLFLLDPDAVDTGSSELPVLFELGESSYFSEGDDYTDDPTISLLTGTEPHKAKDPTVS

[9] = target: Heat shock protein HSP 90-alpha (Homo sapiens, UniProt P07900); assay type: functional, organism-based
[10] = A Cell Based Secondary Assay To Explore Cytotoxicity of Compounds that Sensitize Mycobacterium Tuberculosis to Beta-Lactam Antibiotics.; assay type: functional
[11] = target: T3, Alkaline phosphatase, tissue-nonspecific isozyme (Homo sapiens, UniProt P05186); experiment: potency against alkaline phosphatase TNAP – biochemical, luminescent, dose response, SAR follow-up (AID 1056)
T3 sequence (P05186 whole entry): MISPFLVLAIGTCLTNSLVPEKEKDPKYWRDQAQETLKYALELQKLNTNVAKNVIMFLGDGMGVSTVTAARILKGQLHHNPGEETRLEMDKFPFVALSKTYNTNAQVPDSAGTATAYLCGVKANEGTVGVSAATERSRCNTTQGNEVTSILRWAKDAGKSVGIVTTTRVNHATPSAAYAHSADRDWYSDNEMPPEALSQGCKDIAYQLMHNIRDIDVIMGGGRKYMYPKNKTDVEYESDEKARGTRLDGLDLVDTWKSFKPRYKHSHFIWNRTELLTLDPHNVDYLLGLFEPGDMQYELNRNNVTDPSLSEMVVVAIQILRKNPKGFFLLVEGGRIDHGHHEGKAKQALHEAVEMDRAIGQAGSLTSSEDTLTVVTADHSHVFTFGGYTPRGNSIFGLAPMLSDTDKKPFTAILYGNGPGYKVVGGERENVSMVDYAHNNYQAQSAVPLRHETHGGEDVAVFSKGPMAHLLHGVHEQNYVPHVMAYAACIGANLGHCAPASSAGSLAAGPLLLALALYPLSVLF

[12] = target: Glyceraldehyde-3-phosphate dehydrogenase (Homo sapiens, UniProt P04406)
[13] = NIH-3T3 fibroblast cytotoxicity, dose response, cytotoxicity control, cell-based, fluorescence, Alamar Blue, secondary assay (AID 2327); assay type: functional;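 further: NIH-3T3 mouse fibroblasts cultured with fluconazole at 8 µg/mL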
[14] = target: Induced myeloid leukemia cell differentiation protein Mcl-1 (Homo sapiens, UniProt Q07820); assay type: functional
[15] = fluconazole-exposed Candida albicans growth modulators – fluorescence, retest, confirmation (AID 2467); assay type: functional, cell-based
[16] = NIH3T3 cell viability loss – ATP luminescence, mouse fibroblasts, counter-screen, dose response (AID 2010); assay type: functional, cell-based;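 further: cells exposed to compound for about 90 hours before reading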
[17] = Trypanosoma cruzi growth suppression in host cells – NIH3T3 host cells, beta-gal luminescence, confirmation (AID 2044); assay type: functional, cell-based;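 further: intracellular parasites grown in NIH/3T3 mouse fibroblasts as host cells; luminescent beta-galactosidase reporter signal from transgenic T. cruzi replicating inside host cells; inhibitors lower the luminescence signal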
[18] = HIV-1 AD8 envelope cell-cell fusion blockers – cherry-pick, dose response (AID 652062); assay type: functional, cell-based;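 further: luciferase signal from cell-cell fusion driven by HIV-1 clade B AD8 Env; potency is for inhibitors of fusion seen as a drop in luminescence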
[19] = blockers of HIV-1 envelope-mediated cell-cell fusion – cherry-pick, dose response (AID 652057); assay type: functional, cell-based
[20] = off-target signal loss in HeLa-CEM21 co-culture – HeLa F-luc CTL cells, cherry-picked, counter-screen for HIV-1 Env fusion inhibitor project, dose response (AID 652040); assay type: functional, cell-based;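 further: potency for signal decrease marking cytotoxic or nonspecific inhibition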
[21] = blockers of HIV-1 ZM109 envelope-driven cell-cell fusion – HeLa effector, CEM target cells, luciferase, cherry-pick, dose response (AID 652058); assay type: functional, cell-based;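 further: luciferase signal from HIV-1 Env mediated cell-cell fusion of effector and target cells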
[22] = reduction of Shn3 3'UTR-driven luciferase in osteoblasts – cell-based, Clone20 osteoblasts, firefly luciferase, cherry-picked, dose response (AID 624132); assay type: functional;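 further: firefly luciferase luminescence from reporter carrying the Shn3 3'UTR in osteoblasts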
Cytochrome P450 3A4 = Cytochrome P450 3A4 (Homo sapiens, UniProt P08684);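 further: CYP3A4 tested as one member of a cytochrome P450 panel screen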
[23] = loss of viability in HepG2 cells – cell-based, CellTiter-Glo, cherry-picked, cytotoxicity control for Shn3 inhibitor project, dose response (AID 624134); assay type: functional
[24] = non-specific 3'UTR reporter inhibition in Clone20-Shn3RL – cell-based, Renilla luciferase, cherry-picked, counter-screen for Shn3 inhibitor project, dose response (AID 624133); assay type: functional
Paired box protein Pax-8 = Paired box protein Pax-8 (Homo sapiens, UniProt Q06710); experiment: PAX8 transcriptional activity inhibition in RMG-I – RMG-I cells, luciferase, cherry-pick, dose response (AID 687027); assay type: functional, cell-based;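 further: luciferase reporter driven by Pax8 target thyroperoxidase promoter measured by SteadyGlo luminescence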
[25] = OVCAR-3 cell viability loss – plate reader, dry powder samples, PAX8 inhibitor project, dose response (AID 743044); assay type: functional, cell-based

## O=C(O)c1cccc(NC(=S)NC(=O)c2ccc(-c3ccc(Cl)cc3)o2)c1
Cells [1]
  IC50: 11.4 µM (active)
[2]
  CC50: 27.8 µM (active)

## O=C(O)c1cccc(C(=O)Cc2ccccc2)c1
Leucine aminopeptidase
  IC50: 17.5 µM (active)

## O=C(CN1C(=O)c2ccccc2S1(=O)=O)NCCSCc1ccco1
Leucine aminopeptidase
  IC50: 16.2 µM (active)

## CCc1nc(SCC(=O)Nc2nc3c(s2)CCCC3)c2ccccc2n1
Major prion protein
  IC50: 6.97 µM (active)
Cells [3]
  IC50: > 138 µM (inactive)

## COc1ccc2[nH]c(C(=O)Nc3ccc(C)c(F)c3)cc2c1
Major prion protein
  IC50: 10.5 µM (inactive)
Cells [3]
  IC50: > 138 µM (inactive)

## C=CCN1C(=O)NC(=O)/C(=C(\C)NC(C)c2ccccc2)C1=O (centres undefined)
[4]
  IC50: > 80 µM (inactive)

## COc1cccc(/C=C2/SC(=S)N(CCCC(=O)Nc3ccc(O)cc3)C2=O)c1
[5]
  EC50: 6.72 µM (active)
[6]
  EC50: 8.15 µM (active)
Melanocortin receptor 4
  EC50: > 89.2 µM (inactive)
[7]
  EC50: 16.3 µM (active)
[4]
  IC50: 29 µM (inactive)

## CC(C)(C)c1nn(-c2ccccc2)c2nc(O)c(CNc3ccc4c(c3)OCCO4)cc12
[8]
  EC50: 83.3 µM (active)
[9]
  AC50: 8.3 µM (active)
[10]
  CC50: > 40 µM (active)

## NNC(=O)c1cc(-c2ccc(Cl)c(Cl)c2Cl)n[nH]1
[11]
  IC50: 0.633 µM (active)
[12]
  IC50: > 10 µM (inconclusive)

## Cn1nc(-c2ccc(Cl)cc2)c2cc(C(=O)N3CCCC3)sc21
[4]
  IC50: > 80 µM (inactive)

## Oc1ccc(N2CCN(c3ncnc4sc(-c5ccccc5)cc34)CC2)cc1
[13]
  EC50: > 160 µM (inactive)
[14]
  IC50: 1.43 µM (active)
[15]
  EC50: 1.21 µM (active)
[16]
  EC50: > 60 µM (not active)
Melanocortin receptor 4
  EC50: > 89.2 µM (inactive)
[17]
  EC50: 3.78 µM (active)

## Cn1c(=O)cc(OCCCC(=O)NCc2ccccn2)c2ccccc21
[4]
  IC50: > 80 µM (inactive)

## COc1ccccc1NC(=O)Nc1ccc2c(c1)CCC2
Cells [1]
  IC50: 40.5 µM (active)
[2]
  CC50: 46.2 µM (active)

## Cn1c(=O)c2nc(CNCc3ccccc3Cl)[nH]c2n(C)c1=O
[10]
  CC50: > 40 µM (active)

## Cc1ccc(C2C(C#N)=C(N)SC(N)=C2C#N)cc1
Major prion protein
  IC50: 1.86 µM (active)
Cells [3]
  IC50: > 138 µM (inactive)

## CCOC(=O)[C@@H]1[C@H]2COc3ccc(Br)cc3[C@@H]2N2C(=O)N(c3ccccc3)C(=O)[C@@]12C
[18]
  AC50: 22.9 µM (active)
[19]
  AC50: 2.15 µM (active)
[20]
  AC50: 5.09 µM (active)
[21]
  AC50: 6.14 µM (active)

## CN(C)S(=O)(=O)Oc1ccsc1C(=O)Nc1ccc(C(F)(F)F)cc1
[10]
  CC50: > 40 µM (active)

## CC1(C)CC(=O)c2c(n[nH]c2-c2cccs2)C1
[11]
  IC50: 5.65 µM (active)
[12]
  IC50: > 10 µM (inconclusive)

## O=C(Nc1nnc(SCC(=O)N2CCCCC2)s1)c1cccs1
Leucine aminopeptidase
  IC50: 30.4 µM (active)

## CCN(C(=O)c1cc2cc3ccc(C)cc3nc2o1)c1ccc(OC)cc1
Cells [1]
  IC50: 33 µM (active)
[2]
  CC50: > 50 µM (active)

## COC(=O)c1ccc(C)c(NC(=O)CN2C(=O)c3ccccc3S2(=O)=O)c1
Leucine aminopeptidase
  IC50: 10 µM (active)

## Cc1c(CCO)c(O)oc2nnc(-c3ccccc3)c1-2
[11]
  IC50: > 100 µM (inactive)
[12]
  IC50: > 100 µM (not active)

## Cc1cc2ncn(CC(=O)c3ccc(O)c(O)c3)c2cc1C
[11]
  IC50: > 100 µM (inactive)

## Fc1cccc(Cc2c(-c3ccco3)nc3ccc(Br)cn23)c1
Major prion protein
  IC50: 6.29 µM (active)
Cells [3]
  IC50: > 138 µM (inactive)

## OC1(c2ccc(OC(F)F)cc2)CS/C(=N\c2cccnc2)N1C1CC1 (centres undefined)
[22]
  AC50: 5.4 µM (active)
Cytochrome P450 3A4
  AC50: 0.794 µM (inconclusive)
[23]
  AC50: 7.56 µM (active)
[18]
  AC50: 0.464 µM (active)
[24]
  AC50: 29.4 µM (active)
[20]
  AC50: > 70 µM (inactive)
[21]
  AC50: 36.4 µM (active)

## COc1cccc(-c2ccc3c(c2)[C@H]2[C@H](CCN2C(=O)NC2CCCCC2)[C@@H](CO)N3C)c1
Paired box protein Pax-8
  AC50: 10.6 µM (active)
[25]
  AC50: 27.1 µM (active)

## CC1CCN(C(=O)c2ncn3c2C(=O)N[C@H](C)C3)CC1
[18]
  AC50: 8.4 µM (active)
[19]
  AC50: 4.8 µM (active)
[20]
  AC50: 16.1 µM (active)
[21]
  AC50: 26.6 µM (active)

## C[C@H]1CN([C@@H](C)CO)S(=O)(=O)c2ccc(C#Cc3ccc(F)cc3)cc2O[C@@H]1CN(C)C(=O)NC1CCCCC1
Paired box protein Pax-8
  AC50: 6.32 µM (active)
[25]
  AC50: 37.8 µM (active)

## CN(C)CCC/N=C/c1c(-c2ccccc2)nn(-c2nc3ccccc3s2)c1O
[4]
  IC50: > 80 µM (inactive)
